Source: US12668845B2, “Methods for predicting drug responsiveness in cancer patients” (Allarity Therapeutics Europe ApS, priority 2018, dated 2026)
pIC50: −log10 of the molar value.

Tests used:
SNU-423 = experiment: Growth inhibition of cell lines treated with 2X-121; type: cell-based; conditions: Homo sapiens; cell line SNU-423, origin HCC; read-out: Measured growth inhibition IC50
NCI-H82 = experiment: as above; type: cell-based; conditions: Homo sapiens; cell line NCI-H82, origin SCLC; read-out: Measured growth inhibition IC50
HEC-1B = experiment: as above; type: cell-based; conditions: Homo sapiens; cell line HEC-1B, origin Endometrial; read-out: Measured growth inhibition IC50
NCI-H524 = experiment: as above; type: cell-based; conditions: Homo sapiens; cell line NCI-H524, origin SCLC; read-out: Measured growth inhibition IC50
NCI-H69 = experiment: as above; type: cell-based; conditions: Homo sapiens; cell line NCI-H69, origin SCLC; read-out: Measured growth inhibition IC50
Pfeiffer = experiment: as above; type: cell-based; conditions: Homo sapiens; cell line Pfeiffer, origin DLBCL (GC); read-out: Measured growth inhibition IC50
HEC-88nu = experiment: as above; type: cell-based; conditions: cell line HEC-88nu, origin Endometrial; read-out: Measured growth inhibition IC50
DB = experiment: as above; type: cell-based; conditions: Homo sapiens; cell line DB, origin DLBCL (GC); read-out: Measured growth inhibition IC50
MDA-MB-453 = experiment: as above; type: cell-based; conditions: Homo sapiens; cell line MDA-MB-453, origin Breast; read-out: Measured growth inhibition IC50
HEC-1 = experiment: as above; type: cell-based; conditions: Homo sapiens; cell line HEC-1, origin Endometrial; read-out: Measured growth inhibition IC50
NCI-H929 = experiment: as above; type: cell-based; conditions: Homo sapiens; cell line NCI-H929, origin Myeloma; read-out: Measured growth inhibition IC50
ARH-77 = experiment: as above; type: cell-based; conditions: Homo sapiens; cell line ARH-77, origin Myeloma; read-out: Measured growth inhibition IC50
HCT-15 = experiment: as above; type: cell-based; conditions: Homo sapiens; cell line HCT-15, origin Colon; read-out: Measured growth inhibition IC50
U937 = experiment: as above; type: cell-based; conditions: Homo sapiens, U-937; cell line U937, origin Histiocytic lymphoma-monocytic; read-out: Measured growth inhibition IC50
tumor = experiment: Phase I trial of 2X-121 (NCT01618136), clinical response; type: in vivo, human; set-up: key to RECIST: SD = stable disease; PD = progressive disease; PR = partial response
Description: A Phase I trial of 2X-121 was conducted in the UK (clinicaltrial.gov number NCT01618136). 2X-121 was administered as daily oral doses of 50-800 mg. Of 41 patients enrolled in the Phase I trial, 35 had response assessment. Of these, 2 had partial response (PR) (5% overall response rate (ORR)) and 13 had stable disease (SD). Biopsies and BRCA analysis were voluntary and available from 16, and 7 patients, respectively.
Of the 16 patients with biopsies, 13 passed our quality control (QC) in the lab and were assayed on the Affymetrix HG-U133Plus2 array.
A statistical analysis plan was completed before initiation of blinded prediction of 2X-121 sensitivity on the 13 samples. In this analysis, the difference of the mean expression of genes in Table 3 were subtracted from the mean expression of genes in Table 2 for each patient to determine a difference score. This score was compared to a reference population of 819 breast cancer patients to convert the difference score to a percentile score. The percentile score is shown in Table 4 as “DRP score” and used for FIGS. 3 and 4, and Tables 5 and 6.

RL95-2 = experiment: Growth inhibition of cell lines treated with 2X-121; type: cell-based; conditions: Homo sapiens; cell line RL95-2, origin Endometrial; read-out: Measured growth inhibition IC50
[1] = Patient 1, tumor pancreas, 2X-121 dose 600 mg
[2] = Patient 2, tumor mesothelioma, 2X-121 dose 200 mg
[3] = Patient 3, tumor pancreas, 2X-121 dose 600 mg
[4] = Patient 4, tumor intestine, 2X-121 dose 600 mg
[5] = Patient 5, tumor ovary, 2X-121 dose 600 mg
[6] = Patient 6, tumor lung, 2X-121 dose 50 mg
[7] = Patient 7, tumor pancreas, 2X-121 dose 50 mg
[8] = Patient 8, tumor adrenal, 2X-121 dose 400 mg
[9] = Patient 9, tumor kidney, 2X-121 dose 400 mg
[10] = Patient 10, tumor ovary, 2X-121 dose 800 mg
[11] = Patient 11, tumor ovary, 2X-121 dose 800 mg
[12] = Patient 12, tumor pancreas, 2X-121 dose 600 mg
[13] = Patient 13, tumor gallbladder, 2X-121 dose 600 mg
[14] = predicted resistant group (below DRP cutoff 50, N=7)

O=c1[nH]nc2c3c(cccc13)N=C(CN1Cc3ccccc3C1)N2 [2X-121, 8-(isoindolin-2-ylmethyl)-2,9-dihydro-3H-pyridazino[3,4,5-de]quinazolin-3-one]
pIC50 (SNU-423): 4.72
pIC50 (NCI-H82): 6.33
pIC50 (HEC-1B): 5.14
pIC50 (NCI-H524): 6.16
pIC50 (NCI-H69): 5.88
pIC50 (Pfeiffer): 6.15
pIC50 (HEC-88nu): 5.94
pIC50 (DB): 5.80
pIC50 (MDA-MB-453): 5.21
pIC50 (HEC-1): 5.89
pIC50 (NCI-H929): 5.28
pIC50 (ARH-77): 5.49
pIC50 (HCT-15): 5.66
pIC50 (U937): 5.57
response rate (tumor; BRCA mutated population, 1 of 6 responded): 16%
TimeOS (tumor; Patient 1, tumor pancreas, 600 mg, StatusOS Death): 208 days
TimePFS (tumor; Patient 1, tumor pancreas, 600 mg, StatusPFS censored): 42 days
Diameter (%), change from baseline (tumor; [1]): −10%
RECIST (tumor; [1]): SD
TimeOS (tumor; Patient 2, tumor mesothelioma, 200 mg, StatusOS Death): 167 days
TimePFS (tumor; Patient 2, tumor mesothelioma, 200 mg, StatusPFS Progression): 50 days
Diameter (%), change from baseline (tumor; [2]): 1%
RECIST (tumor; [2]): PD
TimeOS (tumor; Patient 3, tumor pancreas, 600 mg, StatusOS censored): 406 days
TimePFS (tumor; Patient 3, tumor pancreas, 600 mg, StatusPFS censored): 321 days
Diameter (%), change from baseline (tumor; [3]): −22%
RECIST (tumor; [3]): SD
TimeOS (tumor; Patient 4, tumor intestine, 600 mg, StatusOS Death): 120 days
TimePFS (tumor; Patient 4, tumor intestine, 600 mg, StatusPFS Progression): 59 days
Diameter (%), change from baseline (tumor; [4]): 23%
RECIST (tumor; [4]): PD
TimeOS (tumor; Patient 5, tumor ovary, 600 mg, StatusOS censored): 379 days
TimePFS (tumor; Patient 5, tumor ovary, 600 mg, StatusPFS Progression): 331 days
Diameter (%), change from baseline (tumor; [5]): −83%
RECIST (tumor; [5]): PR
TimeOS (tumor; Patient 6, tumor lung, 50 mg, StatusOS censored): 466 days
TimePFS (tumor; Patient 6, tumor lung, 50 mg, StatusPFS Progression): 155 days
Diameter (%), change from baseline (tumor; [6]): 5%
RECIST (tumor; [6]): SD
TimeOS (tumor; Patient 7, tumor pancreas, 50 mg, StatusOS Death): 335 days
TimePFS (tumor; Patient 7, tumor pancreas, 50 mg, StatusPFS censored): 262 days
Diameter (%), change from baseline (tumor; [7]): 3%
RECIST (tumor; [7]): SD
TimeOS (tumor; Patient 8, tumor adrenal, 400 mg, StatusOS Death): 190 days
TimePFS (tumor; Patient 8, tumor adrenal, 400 mg, StatusPFS Progression): 50 days
Diameter (%), change from baseline (tumor; [8]): 40%
RECIST (tumor; [8]): PD
TimeOS (tumor; Patient 9, tumor kidney, 400 mg, StatusOS censored): 865 days
TimePFS (tumor; Patient 9, tumor kidney, 400 mg, StatusPFS Progression): 276 days
Diameter (%), change from baseline (tumor; [9]): −2%
RECIST (tumor; [9]): SD
TimeOS (tumor; Patient 10, tumor ovary, 800 mg, StatusOS Death): 301 days
TimePFS (tumor; Patient 10, tumor ovary, 800 mg, StatusPFS Progression): 50 days
Diameter (%), change from baseline (tumor; [10]): 26%
RECIST (tumor; [10]): PD
TimeOS (tumor; Patient 11, tumor ovary, 800 mg, StatusOS censored): 715 days
TimePFS (tumor; Patient 11, tumor ovary, 800 mg, StatusPFS Progression): 315 days
Diameter (%), change from baseline (tumor; [11]): −46%
RECIST (tumor; [11]): PR
TimeOS (tumor; Patient 12, tumor pancreas, 600 mg, StatusOS Death): 257 days
TimePFS (tumor; Patient 12, tumor pancreas, 600 mg, StatusPFS Progression): 189 days
Diameter (%), change from baseline (tumor; [12]): −7%
RECIST (tumor; [12]): SD
TimeOS (tumor; Patient 13, tumor gallbladder, 600 mg, StatusOS Death): 121 days
TimePFS (tumor; Patient 13, tumor gallbladder, 600 mg, StatusPFS Progression): 41 days
Diameter (%), change from baseline (tumor; [13]): 3%
RECIST (tumor; [13]): PD
patients with partial response (PR) (tumor; Phase I, daily oral 50-800 mg, of 35 patients with response assessment): 2
overall response rate (ORR) (tumor; Phase I, daily oral doses of 50-800 mg, 41 enrolled, 35 with response assessment): 5%
hazard ratio, progression-free survival (PFS) (tumor; above DRP cutoff of 50 (N=6) vs below (N=7), P=0.2 one-sided): 0.59
hazard ratio, overall survival (OS) (tumor; above dose-adjusted DRP cutoff of 50 (N=6) vs below (N=7), P=0.04 one sided): 0.26
response rate (tumor; all 13 patients analyzed with DRP (cutoff 0, 100% of population), 2/13): 15%
response rate (tumor; patients above dose-adjusted DRP cutoff of 50, 2/6): 33%
median PFS (tumor; [14]): 155 days
median survival (tumor; [14]): 208 days
median PFS (tumor; predicted sensitive group (above DRP cutoff 50, N=6)): 296 days
pIC50 (RL95-2): 5.67
